Test results from ChEMBL document CHEMBL3885861, “Open TG-GATES”.

Species: Rattus norvegicus
Assay: Open TG-GATES - Regimen: Single
Format: toxicity, organism-based, Sprague-Dawley
Set-up: regimen Single, gender Male, age 6 weeks
Settings: in vivo, ip, route intraperitoneal injection; for APTT / Bas / Eos / Fbg / Hb / Ht / Lym / MCH / MCHC / MCV / Mono / Neu / PT / Plat / RBC / Ret / WBC: tissue Blood; for KIDNEY_L / KIDNEY_R / KIDNEY_TOTAL: tissue Kidney; for LIVER: tissue Liver; for A/G / ALP / ALT / AST / BUN / CRE / Ca / Cl / DBIL / GLC / IP / K / LDH / Na / PL / RALB / TBIL / TC / TG / TP / gamma-GTP: tissue Plasma
[1] = 0 mg/kg, 3 h, dose level Control
[2] = 0 mg/kg, 6 h, dose level Control
[3] = 0 mg/kg, 9 h, dose level Control
[4] = 0 mg/kg, 24 h, dose level Control
[5] = 150 mg/kg, 24 h, dose level Low

## CCCCS(=N)(=O)CCC(N)C(=O)O (centres undefined) [BUTHIONINE SULFOXIMINE]
[1]
  TERMINAL_BW: 217.4 g
  APTT: 16.3 s
  Bas: 0%
  Eos: 0.6%
  Fbg: 214.6 mg/dL
  Hb: 13.1 g/dL
  Ht: 39.2%
  Lym: 66.4%
  MCH: 21.9 pg
  MCHC: 33.4%
  MCV: 65.6 fL
  Mono: 10%
  Neu: 23.4%
  PT: 11.9 s
  Plat: 108.9 x10_4/uL
  RBC: 598.2 x10_4/ul
  Ret: 8.3%
  WBC: 104.5 x10_2/uL
  KIDNEY_L: 1 g
  KIDNEY_R: 1 g
  KIDNEY_TOTAL: 2 g
  LIVER: 10.4 g
  A/G: 2.3
  ALP: 962.6 IU/L
  ALT: 44 IU/L
  AST: 81 IU/L
  BUN: 12.8 mg/dL
  CRE: 0.5 mg/dL
  Ca: 10.9 mg/dL
  Cl: 104.4 meq/L
  DBIL: 0.086 mg/dL
  GLC: 190 mg/dL
  IP: 10.5 mg/dL
  K: 4.6 meq/L
  LDH: 100.4 IU/L
  Na: 140.6 meq/L
  PL: 139.6 mg/dL
  RALB: 3.7 g/dL
  TBIL: 0.4 mg/dL
  TC: 76 mg/dL
  TG: 63.8 mg/dL
  TP: 5.4 g/dL
  gamma-GTP: 1.2 IU/L
[2]
  TERMINAL_BW: 211.9 g
  APTT: 16.7 s
  Bas: 0%
  Eos: 0.8%
  Fbg: 221 mg/dL
  Hb: 13.3 g/dL
  Ht: 39.9%
  Lym: 68.2%
  MCH: 21.9 pg
  MCHC: 33.3%
  MCV: 65.9 fL
  Mono: 5%
  Neu: 26%
  PT: 10.8 s
  Plat: 112.3 x10_4/uL
  RBC: 605.2 x10_4/ul
  Ret: 9.1%
  WBC: 106.4 x10_2/uL
  KIDNEY_L: 1 g
  KIDNEY_R: 1 g
  KIDNEY_TOTAL: 1.9 g
  LIVER: 9.5 g
  A/G: 2
  ALP: 754.6 IU/L
  ALT: 38.2 IU/L
  AST: 68 IU/L
  BUN: 11.4 mg/dL
  CRE: 0.7 mg/dL
  Ca: 10.9 mg/dL
  Cl: 105.6 meq/L
  DBIL: 0.014 mg/dL
  GLC: 197.6 mg/dL
  IP: 9.8 mg/dL
  K: 4.9 meq/L
  LDH: 58.2 IU/L
  Na: 140.2 meq/L
  PL: 139.4 mg/dL
  RALB: 3.5 g/dL
  TBIL: 0.4 mg/dL
  TC: 78.2 mg/dL
  TG: 62.8 mg/dL
  TP: 5.3 g/dL
  gamma-GTP: 1.6 IU/L
[3]
  TERMINAL_BW: 214.6 g
  APTT: 17.1 s
  Bas: 0%
  Eos: 1%
  Fbg: 231 mg/dL
  Hb: 13.4 g/dL
  Ht: 40.5%
  Lym: 74.8%
  MCH: 21.5 pg
  MCHC: 33%
  MCV: 65.1 fL
  Mono: 5.6%
  Neu: 19%
  PT: 11 s
  Plat: 114 x10_4/uL
  RBC: 622.2 x10_4/ul
  Ret: 9.5%
  WBC: 101.1 x10_2/uL
  KIDNEY_L: 1 g
  KIDNEY_R: 1 g
  KIDNEY_TOTAL: 1.9 g
  LIVER: 8.9 g
  A/G: 2.1
  ALP: 838 IU/L
  ALT: 34.4 IU/L
  AST: 65.8 IU/L
  BUN: 12.8 mg/dL
  CRE: 0.5 mg/dL
  Ca: 11 mg/dL
  Cl: 106 meq/L
  DBIL: 0.006 mg/dL
  GLC: 203.4 mg/dL
  IP: 10.3 mg/dL
  K: 4.9 meq/L
  LDH: 60.8 IU/L
  Na: 139.2 meq/L
  PL: 146.6 mg/dL
  RALB: 3.8 g/dL
  TBIL: 0.3 mg/dL
  TC: 85 mg/dL
  TG: 57 mg/dL
  TP: 5.6 g/dL
  gamma-GTP: 1.2 IU/L
[4]
  TERMINAL_BW: 226.3 g
  APTT: 17.2 s
  Bas: 0%
  Eos: 1%
  Fbg: 231.6 mg/dL
  Hb: 13.6 g/dL
  Ht: 41%
  Lym: 75.4%
  MCH: 21.3 pg
  MCHC: 33.1%
  MCV: 64.5 fL
  Mono: 8.4%
  Neu: 15.2%
  PT: 11.4 s
  Plat: 115.5 x10_4/uL
  RBC: 636.4 x10_4/ul
  Ret: 8.8%
  WBC: 88.5 x10_2/uL
  KIDNEY_L: 1 g
  KIDNEY_R: 1 g
  KIDNEY_TOTAL: 2 g
  LIVER: 11 g
  A/G: 1.8
  ALP: 826.4 IU/L
  ALT: 37.8 IU/L
  AST: 63.2 IU/L
  BUN: 17.8 mg/dL
  CRE: 0.5 mg/dL
  Ca: 11.2 mg/dL
  Cl: 103.6 meq/L
  DBIL: 0.008 mg/dL
  GLC: 210.6 mg/dL
  IP: 9 mg/dL
  K: 4.8 meq/L
  LDH: 89.2 IU/L
  Na: 139.6 meq/L
  PL: 163.4 mg/dL
  RALB: 3.7 g/dL
  TBIL: 0.3 mg/dL
  TC: 83.2 mg/dL
  TG: 109.2 mg/dL
  TP: 5.8 g/dL
  gamma-GTP: 1.6 IU/L
150 mg/kg, 3 h, dose level Low
  TERMINAL_BW: 216.6 g
  APTT: 16.5 s
  Bas: 0%
  Eos: 0.8%
  Fbg: 216.4 mg/dL
  Hb: 13 g/dL
  Ht: 40%
  Lym: 74.8%
  MCH: 21.5 pg
  MCHC: 32.6%
  MCV: 66 fL
  Mono: 6%
  Neu: 18.6%
  PT: 12.1 s
  Plat: 112.9 x10_4/uL
  RBC: 606.2 x10_4/ul
  Ret: 9.2%
  WBC: 102.3 x10_2/uL
  KIDNEY_L: 0.9 g
  KIDNEY_R: 1 g
  KIDNEY_TOTAL: 1.9 g
  LIVER: 10.3 g
  A/G: 2.3
  ALP: 957.2 IU/L
  ALT: 38.8 IU/L
  AST: 70.8 IU/L
  BUN: 13.6 mg/dL
  CRE: 0.5 mg/dL
  Ca: 10.9 mg/dL
  Cl: 104.8 meq/L
  DBIL: 0.08 mg/dL
  GLC: 193 mg/dL
  IP: 9.3 mg/dL
  K: 4.7 meq/L
  LDH: 91.8 IU/L
  Na: 139.8 meq/L
  PL: 133.8 mg/dL
  RALB: 3.8 g/dL
  TBIL: 0.3 mg/dL
  TC: 73.4 mg/dL
  TG: 58.4 mg/dL
  TP: 5.4 g/dL
  gamma-GTP: 1.2 IU/L
150 mg/kg, 6 h, dose level Low
  TERMINAL_BW: 216 g
  APTT: 16.4 s
  Bas: 0%
  Eos: 0.6%
  Fbg: 217.8 mg/dL
  Hb: 13.3 g/dL
  Ht: 39.8%
  Lym: 70%
  MCH: 22.2 pg
  MCHC: 33.6%
  MCV: 66.2 fL
  Mono: 8.6%
  Neu: 20.8%
  PT: 11.2 s
  Plat: 109.8 x10_4/uL
  RBC: 600.6 x10_4/ul
  Ret: 9.3%
  WBC: 102.1 x10_2/uL
  KIDNEY_L: 1 g
  KIDNEY_R: 1 g
  KIDNEY_TOTAL: 2 g
  LIVER: 9.7 g
  A/G: 1.8
  ALP: 849.4 IU/L
  ALT: 32.8 IU/L
  AST: 72 IU/L
  BUN: 13 mg/dL
  CRE: 0.6 mg/dL
  Ca: 10.8 mg/dL
  Cl: 105.6 meq/L
  DBIL: 0 mg/dL
  GLC: 191 mg/dL
  IP: 9.5 mg/dL
  K: 4.6 meq/L
  LDH: 73.2 IU/L
  Na: 140.2 meq/L
  PL: 131.4 mg/dL
  RALB: 3.4 g/dL
  TBIL: 0.4 mg/dL
  TC: 71.8 mg/dL
  TG: 63.4 mg/dL
  TP: 5.2 g/dL
  gamma-GTP: 1.4 IU/L
150 mg/kg, 9 h, dose level Low
  TERMINAL_BW: 212.7 g
  APTT: 16.6 s
  Bas: 0%
  Eos: 1.2%
  Fbg: 232.6 mg/dL
  Hb: 13 g/dL
  Ht: 38.7%
  Lym: 59.6%
  MCH: 22.1 pg
  MCHC: 33.7%
  MCV: 65.6 fL
  Mono: 4.2%
  Neu: 35.2%
  PT: 11.2 s
  Plat: 112.1 x10_4/uL
  RBC: 589.8 x10_4/ul
  Ret: 10.3%
  WBC: 124.2 x10_2/uL
  KIDNEY_L: 1 g
  KIDNEY_R: 1 g
  KIDNEY_TOTAL: 2 g
  LIVER: 8.7 g
  A/G: 1.9
  ALP: 803.6 IU/L
  ALT: 33.6 IU/L
  AST: 69 IU/L
  BUN: 10.4 mg/dL
  CRE: 0.5 mg/dL
  Ca: 10.9 mg/dL
  Cl: 105.8 meq/L
  DBIL: 0.024 mg/dL
  GLC: 196.8 mg/dL
  IP: 9.7 mg/dL
  K: 4.9 meq/L
  LDH: 94 IU/L
  Na: 139 meq/L
  PL: 143.4 mg/dL
  RALB: 3.5 g/dL
  TBIL: 0.4 mg/dL
  TC: 89.6 mg/dL
  TG: 33.8 mg/dL
  TP: 5.4 g/dL
  gamma-GTP: 1.8 IU/L
[5]
  TERMINAL_BW: 227.8 g
  APTT: 16.9 s
  Bas: 0%
  Eos: 1.4%
  Fbg: 242.2 mg/dL
  Hb: 13.1 g/dL
  Ht: 39.2%
  Lym: 77.8%
  MCH: 21.8 pg
  MCHC: 33.5%
  MCV: 65.1 fL
  Mono: 6%
  Neu: 14.6%
  PT: 11.5 s
  Plat: 125.6 x10_4/uL
  RBC: 602.2 x10_4/ul
  Ret: 9.2%
  WBC: 76.2 x10_2/uL
  KIDNEY_L: 1 g
  KIDNEY_R: 1 g
  KIDNEY_TOTAL: 1.9 g
  LIVER: 11.2 g
  A/G: 1.8
  ALP: 977.2 IU/L
  ALT: 31.4 IU/L
  AST: 61.4 IU/L
  BUN: 19.4 mg/dL
  CRE: 0.5 mg/dL
  Ca: 11.3 mg/dL
  Cl: 104 meq/L
  DBIL: 0.01 mg/dL
  GLC: 209 mg/dL
  IP: 8.4 mg/dL
  K: 4.5 meq/L
  LDH: 86 IU/L
  Na: 139.8 meq/L
  PL: 156.6 mg/dL
  RALB: 3.7 g/dL
  TBIL: 0.3 mg/dL
  TC: 88.2 mg/dL
  TG: 101 mg/dL
  TP: 5.9 g/dL
  gamma-GTP: 1 IU/L
